Source: US20090211893A1, “Photo-Activatable Amino Acids” (priority 2005, published 2009)

Experiments:
COS7 cells [1] = test: Incorporation of [1-14C]photo-Met and [3H]Phe into newly synthesized protein; type: cell-based, monkey
Protocol: Cells were washed 6 times with PBS and lysed in 0.5% Triton X-100, 0.2% sodium deoxycholate. Aggregated DNA was removed, protein was precipitated^43, the pellet was redissolved in 0.3 ml 0.5% SDS and subjected to a second round of precipitation. […] The dried pellet was redissolved and processed for scintillation counting (data of Table 1 and FIG. 4b) or processed as follows for amino acid analysis (FIG. 2b): the pellet was dissolved in 600 µl 50 mM NH4HCO3, 0.5% SDS, 3 mM CaCl2 containing 0.25 mg pronase (Roche) followed by incubation at 37° C. for 20 h. The sample was lyophilized, dissolved in 600 μl of 7 N HCl containing 4 mg of glutamic acid and 6 mg of photo-Met and heated to 70° C. for 24 h. A Dowex 50WX8 column (1.6×24 cm) was prepared^18 and equilibrated with 0.1 M sodium citrate pH 3.8. The sample was concentrated to 50 μl in a speed-vak, diluted to 1 ml with 0.1 M sodium citrate pH 3.8, and loaded onto the column. The column was eluted at 24° C. at a flow rate of 20 ml/h with 70 ml 0.1 M sodium citrate pH 3.8, 26 ml 0.1 M sodium citrate pH 4.3 and 100 ml of 0.1 M sodium citrate pH 4.5. Fractions of 3 ml were collected and assayed for absorbance at 350 nm, radioactivity by scintillation counting, and amino groups by the fluorescamine method^44.
To decrease competition for activation by tRNA synthetases, media devoid of the structurally related amino acids Leu and Met (LM-2) or, for some experiments, devoid of Leu, Met, Ile and Val (LM-4) were used. Proteins incorporated radioactivity as shown by autoradiography after separation by SDS-PAGE (FIG. 2a, lane 3). […] 88% of the radioactivity in the labeled proteins was intact [1-^14C]photo-Met (FIG. 2b, photo-Met). A small peak eluting slightly earlier than glutamic acid (FIG. 2 B, Glu) contained 7% of the radioactivity. This peak was also observed if free [1-^14C]photo-Met was heated with HCl under the conditions of the hydrolysis (data not shown) and therefore represents a product of thermal decomposition of the amino acid. Under the conditions employed, radioactivity originating from degradation/re-integration would be expected to appear as aspartate and glutamate (oxidative release of [^14C]CO2, metabolism via pyruvate carboxylase, citric acid cycle and transamination to Gln and Asn that will be hydrolyzed to Glu and Asp by hot HCl). However, no radioactivity was incorporated via this pathway. We conclude that at least 95% of incorporated radioactivity represents intact [1-^14C]photo-Met. To obtain quantitative data on the frequency of incorporation of photo-Met into newly synthesized protein, we performed co-labeling with [1-^14C]photo-Met and [^3H]Phe. […] Two in three hundred amino acids in newly synthesized protein will be photo-Met.

COS7 cells [2] = test: Competition of [1-14C]photo-Met incorporation by natural amino acids; type: cell-based, monkey; conditions: 1.7 mM [1-14C]photo-Met, 3 mM competing amino acid
Protocol: FIG. 4: Specificity of incorporation and cross-linking by photo-Met and photo-Leu. COS7 cells were transfected with HA-tagged human PGRMC1 and were grown in LM-4 in the absence or presence of photo-Leu (A) or photo-Met (B) with addition of 3 mM of the indicated competing amino acid. cross-linked products formed after UV-irradiation were detected by SDS-PAGE followed by western blotting against the HA-epitope. (C) COS7 cells were grown in the presence of 1.7 mM [1-^14C]photo-Met, a constant trace amount of [^3H]Phe and 3 mM of competing unlabeled amino acids as indicated in the legend. Protein was precipitated and protein-bound radioactivity was determined by scintillation counting. […] The control value obtained in the absence of competing amino acid (con) is set to 100. Data are average±SD of triplicate determinations.
COS7 cells were grown for 20 h in LM-2 containing radiolabeled amino acids ([1-^14C]photo-Met and [^3H]Phe). Cells were washed 6 times with PBS and lysed in 0.5% Triton X-100, 0.2% sodium deoxycholate. Aggregated DNA was removed, protein was precipitated^43, the pellet was redissolved in 0.3 ml 0.5% SDS and subjected to a second round of precipitation. […] Fractions of 3 ml were collected and assayed for absorbance at 350 nm, radioactivity by scintillation counting, and amino groups by the fluorescamine method^44. […]

In the case of `CC1(CCC(N)[14C](=O)O)N=N1` (racemic) [[1-^14C]photo-Met, DL-[1-^14C]-2-amino-5,5′-azi-hexanoic acid], the “Relative frequency (of total amino acids in newly synthesized protein)” value (COS7 cells [1]; COS7 cells grown 22 h in LM-2) is reported as 0.7%, the Incorporated amino acid (COS7 cells [1]; COS7 cells grown 22 h in LM-2, average ± SD of triplicate) is reported as 0.50 ± 0.05 nmol/dish and the Protein-bound activity (COS7 cells [1]; COS7 cells grown 22 h in LM-2 with [3H]Phe and [1-14C]photo-Met, average ± SD of triplicate) is reported as 2.34 ± 0.23 nCi/dish. The “frequency of incorporation relative to that of phenylalanine” value (COS7 cells [1]; co-labeling with [1-14C]photo-Met and [3H]Phe) was 14%, the “competition of incorporation by Met and Leu” value (COS7 cells [2]) was “strongly competed” and the “effect of Val and Ile on incorporation” value (COS7 cells [2]) was “slightly stimulated incorporation”.
